Measurements reported in patent US20130217702A1 (Richter Gedeon Nyrt., priority 2010, published 2013).
Structures can show the parent of a compound that is named as a salt.

Experiments:
[1] = target: T1, human recombinant bradykinin B1 receptor (Homo sapiens, UniProt P46663); assay: Human recombinant bradykinin B1 receptor competitive radioligand binding; settings: hB1 expressed in CHO cells, [3H]-[Des-Arg10] Kallidin radioligand; read-out: B1 binding
T1 construct: host or cells: CHO cells, clone hB1-A5
T1 sequence (P46663 1-353): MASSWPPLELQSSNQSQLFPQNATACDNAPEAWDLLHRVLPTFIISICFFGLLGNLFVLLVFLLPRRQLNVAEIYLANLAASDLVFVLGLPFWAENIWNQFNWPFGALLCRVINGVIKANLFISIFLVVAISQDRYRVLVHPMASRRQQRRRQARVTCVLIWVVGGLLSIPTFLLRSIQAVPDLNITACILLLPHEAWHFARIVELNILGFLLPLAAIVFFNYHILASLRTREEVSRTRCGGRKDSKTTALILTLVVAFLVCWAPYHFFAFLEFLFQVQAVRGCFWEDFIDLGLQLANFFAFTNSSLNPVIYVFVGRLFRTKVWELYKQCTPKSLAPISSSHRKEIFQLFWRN
Method in brief: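 Competition radioligand binding on CHO-expressed hB1 membranes, using [3,4-prolyl-3,4-^3H(N)]-[Des-Arg^10] Kallidin as tracer, 15 min at 25° C. Excess Lys-des-Arg^9-Bradykinin (10 μM) set nonspecific binding. Sigmoidal fits of at least seven concentrations gave IC50, converted to Ki via Cheng-Prusoff; KD from Scatchard.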

[2] = target: T2, recombinant human B1 receptors (Homo sapiens, UniProt P46663); assay: Functional assay: antagonist potency by cytosolic calcium measurement (plate reader fluorimeter) in CHO-B1 cells, agonist LysDABK; type: cell-based; settings: CHO-B1 cells, inhibition of LysDABK (EC80)-evoked [Ca2+]i elevation; read-out: B1 func.
T2 construct: host or cells: CHO (CHO-B1)
T2 sequence (P46663 1-353): T1 sequence (P46663 1-353)
Method in brief: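 IC50 is the concentration giving half-maximal inhibition of the LysDABK (EC80) calcium response, fitted from at least three experiments. CHO cells stably expressing human B1 were dye-loaded, exposed to compound for 20-25 min, then read by fluo-4 fluorescence (ΔF/F) at 37 °C.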

Structure (SMILES)	Ki [1]	IC50 [2]
COc1cccc(C(=O)NC2(C(=O)NCc3ccc(-n4c(-c5noc(C)n5)c(Cl)c5ccccc54)cc3)CC2)c1 [Example 175, N-(1-{4-[3-Chloro-2-(5-methyl-[1,2,4]oxadiazol-3-yl)-indol-1-yl]-benzylcarbamoyl}-cyclopropyl)-3-methoxy-benzamide]	< 20 nM	20 to 100 nM
Cc1nc(-c2c(Cl)c3ccccc3n2-c2ccc(CNC(=O)C3(NC(=O)c4cccc(I)c4)CC3)cc2)no1 [Example 176, N-(1-{4-[3-Chloro-2-(5-methyl-[1,2,4]oxadiazol-3-yl)-indol-1-yl]-benzylcarbamoyl}-cyclopropyl)-3-iodo-benzamide]	20 to 100 nM	20 to 100 nM
Cc1nc(-c2c(Cl)c3ccccc3n2-c2ccc(CNC(=O)C3(NC(=O)c4cccc(C(F)(F)F)c4)CC3)cc2)no1 [Example 177, N-(1-{4-[3-Chloro-2-(5-methyl-[1,2,4]oxadiazol-3-yl)-indol-1-yl]-benzylcarbamoyl}-cyclopropyl)-3-trifluoromethyl-benzamide]	20 to 100 nM	< 20 nM
Cc1nc(-c2c(Cl)c3ccccc3n2-c2ccc(CNC(=O)C3(NC(=O)c4cccc(F)c4)CC3)cc2)no1 [Example 178, N-(1-{4-[3-Chloro-2-(5-methyl-[1,2,4]oxadiazol-3-yl)-indol-1-yl]-benzylcarbamoyl}-cyclopropyl)-3-fluoro-benzamide]	< 20 nM	< 20 nM
Cc1cccc(C(=O)NC2(C(=O)NCc3ccc(-n4c(-c5noc(C)n5)c(Cl)c5ccccc54)cc3)CC2)c1 [Example 179, N-(1-{4-[3-Chloro-2-(5-methyl-[1,2,4]oxadiazol-3-yl)-indol-1-yl]-benzylcarbamoyl}-cyclopropyl)-3-methyl-benzamide]	< 20 nM	20 to 100 nM
Cc1nc(-c2c(Cl)c3ccccc3n2-c2ccc(CNC(=O)C3(NC(=O)c4cncc(C(F)(F)F)c4)CC3)cc2)no1 [Example 180, N-(1-{4-[3-Chloro-2-(5-methyl-[1,2,4]oxadiazol-3-yl)-indol-1-yl]-benzylcarbamoyl}-cyclopropyl)-5-trifluoromethyl-nicotinamide]	< 20 nM	< 20 nM
Cc1nc(-c2c(Cl)c3ccccc3n2-c2ccc(CNC(=O)C3(NC(=O)c4conc4C)CC3)cc2)no1 [Example 181, 3-Methyl-isoxazole-4-carboxylic acid (1-{4-[3-chloro-2-(5-methyl-[1,2,4]oxadiazol-3-yl)-indol-1-yl]-benzylcarbamoyl}-cyclopropyl)-amide]	< 20 nM	< 20 nM
Cc1nnc(-c2c(Cl)c3ccccc3n2-c2ccc(CNC(=O)C3(NC(=O)c4cnc5ccccc5c4)CC3)cc2)o1 [Example 182, Quinoline-3-carboxylic acid (1-{4-[3-chloro-2-(5-methyl-[1,3,4]oxadiazol-2-yl)-indol-1-yl]-benzylcarbamoyl}-cyclopropyl)-amide]	< 20 nM	< 20 nM
Cc1nnc(-c2c(Cl)c3ccccc3n2-c2ccc(CNC(=O)C3(NC(=O)CC(F)(F)F)CC3)cc2)o1 [Example 183, 1-(3,3,3-Trifluoro-propionylamino)-cyclopropanecarboxylic acid 4-[3-chloro-2-(5-methyl-[1,3,4]oxadiazol-2-yl)-indol-1-yl]-benzylamide]	20 to 100 nM	20 to 100 nM
Cc1nnc(-c2c(Cl)c3ccccc3n2-c2ccc(CNC(=O)C3(NC(=O)c4cncnc4)CC3)cc2)o1 [Example 184, Pyrimidine-5-carboxylic acid (1-{4-[3-chloro-2-(5-methyl-[1,3,4]oxadiazol-2-yl)-indol-1-yl]-benzylcarbamoyl}-cyclopropyl)-amide]	< 20 nM	< 20 nM
Cc1ncc(C(=O)NC2(C(=O)NCc3ccc(-n4c(-c5noc(C)n5)c(Cl)c5ccccc54)cc3)CC2)cn1 [Example 185, 2-Methyl-pyrimidine-5-carboxylic acid (1-{4-[3-chloro-2-(5-methyl-[1,2,4]oxadiazol-3-yl)-indol-1-yl]-benzylcarbamoyl}-cyclopropyl)-amide]	< 20 nM	< 20 nM
Cc1nc(-c2c(Cl)c3ccccc3n2-c2ccc(CNC(=O)C3(NC(=O)c4cccc(N)c4)CC3)cc2)no1 [Example 186, 3-Amino-N-(1-{4-[3-chloro-2-(5-methyl-[1,2,4]oxadiazol-3-yl)-indol-1-yl]-benzylcarbamoyl}-cyclopropyl)-benzamide hydrochloride]	< 20 nM	< 20 nM
NC(=O)c1c(Cl)c2ccccc2n1-c1ccc(CNC(=O)C2(NC(=O)C(F)(F)F)CC2)cc1 [Example 187, 3-Chloro-1-[4-({[1-(2,2,2-trifluoro-acetylamino)-cyclopropanecarbonyl]-amino}-methyl)-phenyl]-1H-indole-2-carboxylic acid amide]	100 to 500 nM	20 to 100 nM
COc1cc(C(=O)NC2(C(=O)NCc3ccc(-n4c(C(N)=O)c(Cl)c5ccccc54)cc3)CC2)on1 [Example 188, 3-Chloro-1-{4-[({1-[(3-methoxy-isoxazole-5-carbonyl)-amino]-cyclopropane-carbonyl}-amino)-methyl]-phenyl}-1H-indole-2-carboxylic acid amide]	20 to 100 nM	< 20 nM
Cc1nc(-c2c(Cl)c3cc(F)ccc3n2-c2ccc(CNC(=O)C3(NC(=O)C(F)(F)F)CC3)cc2)no1 [Example 189, 1-(2,2,2-Trifluoro-acetylamino)-cyclopropanecarboxylic acid 4-[3-chloro-5-fluoro-2-(5-methyl-[1,2,4]oxadiazol-3-yl)-indol-1-yl]-benzylamide]	< 20 nM	< 20 nM
Cc1nc(-c2c(Cl)c3ccccc3n2-c2ccc([C@@H](C)NC(=O)C3(NC(=O)C(F)(F)F)CC3)c(F)c2)no1 [Example 190, 1-(2,2,2-Trifluoro-acetylamino)-cyclopropanecarboxylic acid ((R)-1-{4-[3-chloro-2-(5-methyl-[1,2,4]oxadiazol-3-yl)-indol-1-yl]-2-fluoro-phenyl}-ethyl)-amide]	< 20 nM	< 20 nM
COc1cc(C(=O)NC2(C(=O)N[C@H](C)c3ccc(-n4c(-c5noc(C)n5)c(Cl)c5ccccc54)cc3F)CC2)on1 [Example 191, 3-Methoxy-isoxazole-5-carboxylic acid [1-((R)-1-{4-[3-chloro-2-(5-methyl-[1,2,4]oxadiazol-3-yl)-indol-1-yl]-2-fluoro-phenyl}-ethylcarbamoyl)-cyclopropyl]amide]	< 20 nM	< 20 nM
COc1cc(C(=O)NC2(C(=O)NCc3ccc(-n4c(-c5noc(C)n5)c(Cl)c5ccccc54)cc3F)CC2)on1 [Example 192, 3-Methoxy-isoxazole-5-carboxylic acid (1-{4-[3-chloro-2-(5-methyl-[1,2,4]oxadiazol-3-yl)-indol-1-yl]-2-fluoro-benzylcarbamoyl}-cyclopropyl)-amide]	< 20 nM	< 20 nM
COc1cc(C(=O)NC2(C(=O)NCc3ccc(-n4c(-c5nc(C)no5)c(Cl)c5ccccc54)cc3)CC2)on1 [Example 193, 3-Methoxy-isoxazole-5-carboxylic acid (1-{4-[3-chloro-2-(3-methyl-[1,2,4]oxadiazol-5-yl)-indol-1-yl]-benzylcarbamoyl}-cyclopropyl)-amide]	< 20 nM	< 20 nM
Cc1noc(-c2c(Cl)c3ccccc3n2-c2ccc(CNC(=O)C3(NC(=O)C(F)(F)F)CC3)cc2)n1 [Example 194, 1-(2,2,2-Trifluoro-acetylamino)-cyclopropanecarboxylic acid 4-[3-chloro-2-(3-methyl-[1,2,4]oxadiazol-5-yl)-indol-1-yl]-benzylamide]	< 20 nM	< 20 nM
COc1cc(C(=O)NC2(C(=O)NCc3ccc(-n4c(-c5noc(C)n5)cc5ccccc54)cc3)CC2)on1 [Example 195, 3-Methoxy-isoxazole-5-carboxylic acid (1-{4-[2-(5-methyl-[1,2,4]oxadiazol-3-yl)-indol-1-yl]-benzylcarbamoyl}-cyclopropyl)-amide]	< 20 nM	< 20 nM
COc1cc(C(=O)NC2(C(=O)NCc3ccc(-n4c(-c5nc(C)no5)cc5ccccc54)cc3)CC2)on1 [Example 196, 3-Methoxy-isoxazole-5-carboxylic acid (1-{4-[2-(3-methyl-[1,2,4]oxadiazol-5-yl)-indol-1-yl]-benzylcarbamoyl}-cyclopropyl)-amide]	< 20 nM	20 to 100 nM
COc1cc(C(=O)NC2(C(=O)NCc3ccc(-n4c(-c5noc(C)n5)c(Cl)c5cc(F)ccc54)cc3F)CC2)on1 [Example 197, 3-Methoxy-isoxazole-5-carboxylic acid (1-{4-[3-chloro-5-fluoro-2-(5-methyl-[1,2,4]oxadiazol-3-yl)-indol-1-yl]-2-fluoro-benzylcarbamoyl}-cyclopropyl)-amide]	< 20 nM	< 20 nM
